Laboratory results as given in PubChem BioAssay (NCI).
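These data come from cells grown in 96-well plates and exposed to compound for 48 hours at five concentrations. Abbreviation: GI50, concentration required for 50% inhibition of growth. The concentration for full growth arrest is given as TGI.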

Legend:
Assay in all cases: inhibition of tumour cell growth, NCI panel, 48 h
786-0 renal = tested on: 786-0 renal
A498 renal = tested on: A498 renal
A549 NSCLC = tested on: A549 NSCLC
ACHN renal = tested on: ACHN renal
BT-549 breast = tested on: BT-549 breast
CAKI-1 renal = tested on: CAKI-1 renal
CCRF-CEM leukemia = tested on: CCRF-CEM leukemia
COLO 205 colon = tested on: COLO 205 colon
DU-145 prostate = tested on: DU-145 prostate
EKVX NSCLC = tested on: EKVX NSCLC
HCC-2998 colon = tested on: HCC-2998 colon
HCT-116 colon = tested on: HCT-116 colon
HCT-15 colon = tested on: HCT-15 colon
HL-60(TB) leukemia = tested on: HL-60(TB) leukemia
HOP-62 NSCLC = tested on: HOP-62 NSCLC
HS 578T breast = tested on: HS 578T breast
HT29 colon = tested on: HT29 colon
IGROV1 ovarian = tested on: IGROV1 ovarian
K-562 leukemia = tested on: K-562 leukemia
KM12 colon = tested on: KM12 colon
LOX IMVI melanoma = tested on: LOX IMVI melanoma
M14 melanoma = tested on: M14 melanoma
MALME-3M melanoma = tested on: MALME-3M melanoma
MCF7 breast = tested on: MCF7 breast
MDA-MB-231 breast = tested on: MDA-MB-231 breast
MDA-MB-435 = tested on: MDA-MB-435
MOLT-4 leukemia = tested on: MOLT-4 leukemia
NCI-H226 lung = tested on: NCI-H226 lung
NCI-H23 lung = tested on: NCI-H23 lung
NCI-H460 lung = tested on: NCI-H460 lung
NCI-H522 lung = tested on: NCI-H522 lung
NCI/ADR-RES ovarian = tested on: NCI/ADR-RES ovarian
OVCAR-3 ovarian = tested on: OVCAR-3 ovarian
OVCAR-4 ovarian = tested on: OVCAR-4 ovarian
OVCAR-5 ovarian = tested on: OVCAR-5 ovarian
OVCAR-8 ovarian = tested on: OVCAR-8 ovarian
PC-3 prostate = tested on: PC-3 prostate
RPMI-8226 leukemia = tested on: RPMI-8226 leukemia
RXF 393 renal = tested on: RXF 393 renal
SF-268 CNS = tested on: SF-268 CNS
SF-295 CNS = tested on: SF-295 CNS
SF-539 CNS = tested on: SF-539 CNS
SK-MEL-2 melanoma = tested on: SK-MEL-2 melanoma
SK-MEL-28 melanoma = tested on: SK-MEL-28 melanoma
SK-MEL-5 melanoma = tested on: SK-MEL-5 melanoma
SK-OV-3 ovarian = tested on: SK-OV-3 ovarian
SN12C renal = tested on: SN12C renal
SNB-19 CNS = tested on: SNB-19 CNS
SNB-75 CNS = tested on: SNB-75 CNS
SR leukemia = tested on: SR leukemia
SW-620 colon = tested on: SW-620 colon
T-47D breast = tested on: T-47D breast
TK-10 renal = tested on: TK-10 renal
U251 CNS = tested on: U251 CNS
UACC-257 melanoma = tested on: UACC-257 melanoma
UACC-62 melanoma = tested on: UACC-62 melanoma
UO-31 renal = tested on: UO-31 renal

SMILES: CC(=O)O[C@@H]1C[C@]2(C(C)C)O[C@@]1(C)[C@@H]1CCC(C)=C1[C@@H]2OC(=O)/C=C/c1ccccc1
- GI50 (786-0 renal): 84.3 µM
- TGI (786-0 renal): > 100 µM
- GI50 (A498 renal): 2.19 µM
- TGI (A498 renal): 6.59 µM
- GI50 (A549 NSCLC): 47 µM
- TGI (A549 NSCLC): > 100 µM
- GI50 (ACHN renal): 4.49 µM
- TGI (ACHN renal): > 100 µM
- GI50 (BT-549 breast): 51.3 µM
- TGI (BT-549 breast): > 100 µM
- GI50 (CAKI-1 renal): 13 µM
- TGI (CAKI-1 renal): > 100 µM
- GI50 (CCRF-CEM leukemia): 31.3 µM
- TGI (CCRF-CEM leukemia): > 100 µM
- GI50 (COLO 205 colon): 31.4 µM
- TGI (COLO 205 colon): > 100 µM
- GI50 (DU-145 prostate): 70.1 µM
- TGI (DU-145 prostate): > 100 µM
- GI50 (EKVX NSCLC): 20 µM
- TGI (EKVX NSCLC): > 100 µM
- GI50 (HCC-2998 colon): 68.1 µM
- TGI (HCC-2998 colon): > 100 µM
- GI50 (HCT-116 colon): 16.4 µM
- TGI (HCT-116 colon): > 100 µM
- GI50 (HCT-15 colon): 32.7 µM
- TGI (HCT-15 colon): > 100 µM
- GI50 (HL-60(TB) leukemia): 25.1 µM
- TGI (HL-60(TB) leukemia): > 100 µM
- GI50 (HOP-62 NSCLC): 88.8 µM
- TGI (HOP-62 NSCLC): > 100 µM
- GI50 (HS 578T breast): 4.79 µM
- TGI (HS 578T breast): > 100 µM
- GI50 (HT29 colon): 30.6 µM
- TGI (HT29 colon): > 100 µM
- GI50 (IGROV1 ovarian): > 100 µM
- TGI (IGROV1 ovarian): > 100 µM
- GI50 (K-562 leukemia): 33.7 µM
- TGI (K-562 leukemia): > 100 µM
- GI50 (KM12 colon): 40 µM
- TGI (KM12 colon): > 100 µM
- GI50 (LOX IMVI melanoma): 29.4 µM
- TGI (LOX IMVI melanoma): > 100 µM
- GI50 (M14 melanoma): 40.1 µM
- TGI (M14 melanoma): > 100 µM
- GI50 (MALME-3M melanoma): 39.2 µM
- TGI (MALME-3M melanoma): > 100 µM
- GI50 (MCF7 breast): 19.5 µM
- TGI (MCF7 breast): > 100 µM
- GI50 (MDA-MB-231 breast): 49.3 µM
- TGI (MDA-MB-231 breast): > 100 µM
- GI50 (MDA-MB-435): 39.1 µM
- TGI (MDA-MB-435): > 100 µM
- GI50 (MOLT-4 leukemia): 26.9 µM
- TGI (MOLT-4 leukemia): > 100 µM
- GI50 (NCI-H226 lung): 29.1 µM
- TGI (NCI-H226 lung): > 100 µM
- GI50 (NCI-H23 lung): 35.3 µM
- TGI (NCI-H23 lung): > 100 µM
- GI50 (NCI-H460 lung): 30.9 µM
- TGI (NCI-H460 lung): > 100 µM
- GI50 (NCI-H522 lung): 20.7 µM
- TGI (NCI-H522 lung): > 100 µM
- GI50 (NCI/ADR-RES ovarian): 23.1 µM
- TGI (NCI/ADR-RES ovarian): > 100 µM
- GI50 (OVCAR-3 ovarian): 22.5 µM
- TGI (OVCAR-3 ovarian): > 100 µM
- GI50 (OVCAR-4 ovarian): 11.6 µM
- TGI (OVCAR-4 ovarian): > 100 µM
- GI50 (OVCAR-5 ovarian): > 100 µM
- TGI (OVCAR-5 ovarian): > 100 µM
- GI50 (OVCAR-8 ovarian): 8.89 µM
- TGI (OVCAR-8 ovarian): > 100 µM
- GI50 (PC-3 prostate): 8.33 µM
- TGI (PC-3 prostate): > 100 µM
- GI50 (RPMI-8226 leukemia): 9.63 µM
- TGI (RPMI-8226 leukemia): 57.4 µM
- GI50 (RXF 393 renal): 8.83 µM
- TGI (RXF 393 renal): 65.9 µM
- GI50 (SF-268 CNS): 35.1 µM
- TGI (SF-268 CNS): > 100 µM
- GI50 (SF-295 CNS): 38.6 µM
- TGI (SF-295 CNS): > 100 µM
- GI50 (SF-539 CNS): > 100 µM
- TGI (SF-539 CNS): > 100 µM
- GI50 (SK-MEL-2 melanoma): > 100 µM
- TGI (SK-MEL-2 melanoma): > 100 µM
- GI50 (SK-MEL-28 melanoma): 69.9 µM
- TGI (SK-MEL-28 melanoma): > 100 µM
- GI50 (SK-MEL-5 melanoma): 22.5 µM
- TGI (SK-MEL-5 melanoma): 78.5 µM
- GI50 (SK-OV-3 ovarian): 71.3 µM
- TGI (SK-OV-3 ovarian): > 100 µM
- GI50 (SN12C renal): 10.4 µM
- TGI (SN12C renal): > 100 µM
- GI50 (SNB-19 CNS): 85.3 µM
- TGI (SNB-19 CNS): > 100 µM
- GI50 (SNB-75 CNS): 27.9 µM
- TGI (SNB-75 CNS): > 100 µM
- GI50 (SR leukemia): 31.8 µM
- TGI (SR leukemia): > 100 µM
- GI50 (SW-620 colon): 39 µM
- TGI (SW-620 colon): > 100 µM
- GI50 (T-47D breast): 19.7 µM
- TGI (T-47D breast): > 100 µM
- GI50 (TK-10 renal): 93.2 µM
- TGI (TK-10 renal): > 100 µM
- GI50 (U251 CNS): 48.4 µM
- TGI (U251 CNS): > 100 µM
- GI50 (UACC-257 melanoma): 27.8 µM
- TGI (UACC-257 melanoma): > 100 µM
- GI50 (UACC-62 melanoma): 26.5 µM
- TGI (UACC-62 melanoma): > 100 µM
- GI50 (UO-31 renal): 20 µM
- TGI (UO-31 renal): > 100 µM
